pEC50: −log10 of the molar value.
These compounds were tested against T1, hSTING (Homo sapiens, UniProt Q86WV6, G230A/H232R/R293Q/R71H) (assay: STING reporter assay: THP1-Dual KO-IFNAR2 cells stimulated with 2′3′cGAMP, luciferase reporter activity). Conditions: 15 μM 2′3′cGAMP transfected with Lipofectamine 2000, 24 h, luciferase reporter (QUANTI-Luc).
T1 construct: host or cells: THP1-Dual KO-IFNAR2 cells
T1 sequence (Q86WV6 whole entry R71H/G230A/H232R/R293Q): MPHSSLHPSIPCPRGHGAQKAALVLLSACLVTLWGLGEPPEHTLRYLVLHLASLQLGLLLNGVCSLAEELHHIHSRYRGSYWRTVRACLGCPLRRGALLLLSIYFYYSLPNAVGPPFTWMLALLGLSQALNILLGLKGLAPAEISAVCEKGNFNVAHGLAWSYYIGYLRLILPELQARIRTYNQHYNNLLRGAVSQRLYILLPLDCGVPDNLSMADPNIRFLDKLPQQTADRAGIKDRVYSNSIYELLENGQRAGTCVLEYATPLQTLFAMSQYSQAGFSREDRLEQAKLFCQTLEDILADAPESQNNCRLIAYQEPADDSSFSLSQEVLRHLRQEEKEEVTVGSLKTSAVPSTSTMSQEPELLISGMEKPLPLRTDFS
Assay type: cell-based
Protocol: STING pathway activation by the compounds described herein was measured using THP1-Dual™ cells (KO-IFNAR2).
THP1-Dual™ KO-IFNAR2 Cells (obtained from invivogen) were maintained in RPMI, 10% FCS, 5 ml P/S, 2 mM L-glut, 10 mM Hepes, and 1 mM sodium pyruvate. Compounds were spotted in empty 384 well tissue culture plates (Greiner 781182) by Echo for a final concentration of 0.0017-100 μM. Cells were plated into the TC plates at 40 μL per well, 2×10E6 cells/mL. For activation with STING ligand, 2′3′cGAMP (MW 718.38, obtained from Invivogen), was prepared in Optimem media.
The following solutions were prepared for each 1×384 plate: • Solution A: 2 mL Optimem with one of the following stimuli: • 60 μL of 10 mM 2′3′cGAMP→150 μM stock • Solution B: 2 mL Optimem with 60 μL Lipofectamine 2000→Incubate 5 min at RT
2 mL of solution A and 2 ml Solution B was mixed and incubated for 20 min at room temperature (RT). 20 μL of transfection solution (A+B) was added on top of the plated cells, with a final 2′3′cGAMP concentration of 15 μM. The plates were then centrifuged immediately at 340 g for 1 minute, after which they were incubated at 37° C., 5% CO2, >98% humidity for 24 h. Luciferase reporter activity was then measured. EC50 values were calculated by using standard methods known in the art.
Luciferase reporter assay: 10 μL of supernatant from the assay was transferred to white 384-plate with flat bottom and squared wells. One pouch of QUANTI-Luc™ Plus was dissolved in 25 mL of water. 100 μL of QLC Stabilizer per 25 mL of QUANTI-Luc™Plus solution was added. 50 μL of QUANTI-Luc™ Plus/QLC solution per well was then added. Luminescence was measured on a Platereader (e.g., Spectramax I3X (Molecular Devices GF3637001)).
Luciferase reporter activity was then measured. EC50 values were calculated by using standard methods known in the art.
Work on O=C(Nc1c[nH]c2cc(F)c(F)cc12)c1cc(CC2CCN(CC(F)(F)F)CC2)no1 [Compound 155, N-(5,6-difluoro-1H-indol-3-yl)-3-((1-(2,2,2-trifluoroethyl)piperidin-4-yl)methyl)isoxazole-5-carboxamide] yielded a pEC50 of 6.70 to 7.40. O=C(Nc1c[nH]c2ccc(Cl)cc12)c1cn(-c2cnc(OCC(F)(F)F)c(F)c2)nn1 [Compound 159, N-(5-chloro-1H-indol-3-yl)-1-(5-fluoro-6-(2,2,2-trifluoroethoxy)pyridin-3-yl)-1H-1,2,3-triazole-4-carboxamide] was tested, and the pEC50 was 6.00 to 6.70. O=C(Nc1c[nH]c2ccccc12)c1cn(Cc2ccc(C(F)(F)F)cn2)cn1 [Compound 130, N-(1H-indol-3-yl)-1-((5-(trifluoromethyl)pyridin-2-yl)methyl)-1H-imidazole-4-carboxamide] was tested, and the pEC50 was 5.30 to 6.00. For O=C(Nc1c[nH]c2ccccc12)c1cn(Cc2ccc(C(F)(F)F)c(Cl)c2)cn1 [Compound 136, 1-(3-chloro-4-(trifluoromethyl)benzyl)-N-(1H-indol-3-yl)-1H-imidazole-4-carboxamide], the pEC50 was 6.00 to 6.70. Compound O=C(Nc1c[nH]c2cc(F)c(F)cc12)c1cnn(C2CCCCC2)c1 [Compound 116, 1-cyclohexyl-N-(5,6-difluoro-1H-indol-3-yl)-1H-pyrazole-4-carboxamide] has a pEC50 of 5.30 to 6.00. With O=C(Nc1c[nH]c2cc(Cl)ccc12)c1cnn(Cc2ccc(C(F)(F)F)cc2)c1 [Compound 102, N-(6-chloro-1H-indol-3-yl)-1-[[4-(trifluoromethyl)phenyl]methyl]pyrazole-4-carboxamide] the pEC50 was 6.00 to 6.70. For O=C(Nc1c[nH]c2cc(F)c(F)cc12)c1ncn(-c2ccccc2)n1 [Compound 110, N-(5,6-difluoro-1H-indol-3-yl)-1-phenyl-1H-1,2,4-triazole-3-carboxamide], the pEC50 was 6.70 to 7.40. O=C(Nc1c[nH]c2cc(F)c(F)cc12)c1cn(-c2ccnc(COCC(F)(F)F)c2)nn1 [Compound 156, N-(5,6-difluoro-1H-indol-3-yl)-1-(2-((2,2,2-trifluoroethoxy)methyl)pyridin-4-yl)-1H-1,2,3-triazole-4-carboxamide] gave a pEC50 of 5.30 to 6.00. In the case of O=C(Nc1c[nH]c2cc(F)c(F)cc12)c1cnn(CCOc2cncc(C(F)(F)F)c2)c1 [Compound 161, N-(5,6-difluoro-1H-indol-3-yl)-1-(2-((5-(trifluoromethyl)pyridin-3-yl)oxy)ethyl)-1H-pyrazole-4-carboxamide], the pEC50 was 6.00 to 6.70. Work on O=C(Nc1c[nH]c2cc(F)c(F)cc12)c1nn(Cc2ccc(C(F)(F)F)cc2)c(=O)[nH]1 [Compound 142, N-(5,6-difluoro-1H-indol-3-yl)-5-oxo-1-(4-(trifluoromethyl)benzyl)-4,5-dihydro-1H-1,2,4-triazole-3-carboxamide] yielded a pEC50 of 5.30 to 6.00. COc1ccc2[nH]cc(NC(=O)c3cnn(Cc4ccc(C(F)(F)F)cc4)c3)c2n1 [Compound 118, N-(5-methoxy-1H-pyrrolo[3,2-b]pyridin-3-yl)-1-(4-(trifluoromethyl)benzyl)-1H-pyrazole-4-carboxamide] gave a pEC50 of 5.30 to 6.00. Work on O=C(Nc1c[nH]c2cc(F)c(F)cc12)c1cc(Cc2ccc(C(F)(F)F)cc2)no1 [Compound 151, N-(5,6-difluoro-1H-indol-3-yl)-3-(4-(trifluoromethyl)benzyl)isoxazole-5-carboxamide] yielded a pEC50 of 6.00 to 6.70. In the case of O=C(Nc1c[nH]c2cc(F)c(F)cc12)c1ccnn1CCOc1cccnc1 [Compound 127, N-(5,6-difluoro-1H-indol-3-yl)-1-(2-(pyridin-3-yloxy)ethyl)-1H-pyrazole-5-carboxamide], the pEC50 was 4.00 to 5.30. O=C(Nc1c[nH]c2cc(F)ccc12)c1ccn(Cc2ccc(C(F)(F)F)cc2)n1 [Compound 103, N-(6-fluoro-1H-indol-3-yl)-1-(4-(trifluoromethyl)benzyl)-1H-pyrazole-3-carboxamide] gave a pEC50 of 6.00 to 6.70. In the case of O=C(Nc1c[nH]c2cc(F)c(F)cc12)c1cc(-c2cc(F)cc(F)c2)[nH]n1 [Compound 173, N-(5,6-difluoro-1H-indol-3-yl)-5-(3,5-difluorophenyl)-1H-pyrazole-3-carboxamide], the pEC50 was 6.00 to 6.70.

— US20230271941A1, “COMPOUNDS AND COMPOSITIONS FOR TREATING CONDITIONS ASSOCIATED WITH STING ACTIVITY” (IFM Due, Inc., priority 2020, published 2023)
